Patent US9771343B2, “2-alkyl-or-aryl-substituted tanshinone derivatives, and preparation method and application thereof” (Hangzhou Bensheng Pharmaceutical Co., Ltd., priority 2011, dated 2017)
Converted amounts (≈) assume the structure as drawn.

Legend:
MG63 (osteosarcoma) = assay: MTT cell growth inhibition, MG63 cells, 72 h; type: cell-based, human; settings: MG-63, 72 h
Protocol: (§1) The standard sample of tanshinone I (TA) and the 2-alkyl- or 2-aromatic-substituted tanshinone I derivatives of the present invention are sufficiently dissolved in dimethylsulfoxide to produce a stock solution of 10 mg/mL, which is refrigerated at 4° C. and stored in dark, and is diluted with a cell culture medium to the desired concentration prior to experimentation.
(§2) Obtaining 6000 well-growing human solid tumor cells and inoculating them into wells of a 96-well cell culture plate. The culture medium is DMEM High Glucose cell culture medium containing 10% fetal bovine serum. The plate is placed in a carbon dioxide cell incubator (5% CO2) at 37° C. and incubated for 24 hours. After adding the 2-alkyl- or 2-aromatic-substituted tanshinone I derivatives of different concentrations and mixing uniformly, the plate is placed in a carbon dioxide cell incubator (5% CO2) at 37° C. and incubated for 72 hours. Then the viable cell concentration is determined by MTT method. In this experiment, the cell viability in control group (not treated with any compound) is set as 100%, and the cell viability (%) after treatment by the compounds and the half maximum inhibitory concentration for the leukemia cell at 72 hours (IC50 value of 72 hours, μg/mL) are calculated.

[1] = system: H9 (acute lymphoblastic leukemia, ALL); assay: MTT cell growth inhibition, H9 leukemia cells, 72 h; type: cell-based; settings: H9, 72 h
Protocol: as §1, with “with” for “with a”, “to a” for “to the”
as §2, with “leukemia” for “human solid tumor”, “the RPMI-1640” for “DMEM High Glucose”, “serum.” for “serum. The plate is placed in a carbon dioxide cell incubator (5% CO2) at 37° C. and incubated for 24 hours.”, “adding on the second day” for “adding”, “uniformly, placing” for “uniformly,”, “plate” for “plate is placed”

[2] = system: SK-OV-3 (ovarian cancer cell); assay: MTT cell growth inhibition, SK-OV-3 cells, 72 h; type: cell-based, human; settings: SK-OV-3, 72 h
Protocol: as §1, §2

[3] = system: K562/adr (drug-resistant, chronic myeloid leukemia, CML); assay: MTT cell growth inhibition, K562/adr leukemia cells, 72 h; type: cell-based; settings: K562/ADR
Protocol: as §1, with “with” for “with a”, “to a” for “to the”
as §2, with “leukemia” for “human solid tumor”, “the RPMI-1640” for “DMEM High Glucose”, “serum.” for “serum. The plate is placed in a carbon dioxide cell incubator (5% CO2) at 37° C. and incubated for 24 hours.”, “adding on the second day” for “adding”, “uniformly, placing” for “uniformly,”, “plate” for “plate is placed”

[4] = background statement; cited from earlier work
tumor-bearing nude mice = settings: literature report; cited from earlier work
[5] = system: SGC-7901 human gastric adenocarcinoma cells; settings: concentration dependent within a certain range, literature report; cited from earlier work
[6] = system: Hela (human cervical cancer cell); assay: MTT cell growth inhibition, Hela cells, 72 h; type: cell-based; settings: Hela, 72 h
Protocol: as §1, §2

[7] = system: MGC 803 (human gastric cancer cell); assay: MTT cell growth inhibition, MGC 803 cells, 72 h; type: cell-based; settings: MGC-803, 72 h
Protocol: as §1, §2

[8] = system: Hep G2 (human liver cancer cell); assay: MTT cell growth inhibition, Hep G2 cells, 72 h; type: cell-based; settings: Hep G2, 72 h
Protocol: as §1, §2

[9] = system: Kasumi-1 (acute myeloid leukemia M2 type, AML-M2); assay: MTT cell growth inhibition, Kasumi-1 leukemia cells, 72 h; type: cell-based; settings: Kasumi-1, 72 h
Protocol: as §1, with “with” for “with a”, “to a” for “to the”
as §2, with “leukemia” for “human solid tumor”, “the RPMI-1640” for “DMEM High Glucose”, “serum.” for “serum. The plate is placed in a carbon dioxide cell incubator (5% CO2) at 37° C. and incubated for 24 hours.”, “adding on the second day” for “adding”, “uniformly, placing” for “uniformly,”, “plate” for “plate is placed”

[10] = system: CNE (nasopharyngeal carcinoma cell); assay: MTT cell growth inhibition, CNE cells, 72 h; type: cell-based, human; settings: CNE, 72 h
Protocol: as §1, §2

[11] = system: PANC-1 (pancreatic cancer); assay: MTT cell growth inhibition, PANC-1 cells, 72 h; type: cell-based, human; settings: PANC-1, 72 h
Protocol: as §1, §2

PC-3 (prostate cancer) = assay: MTT cell growth inhibition, PC-3 cells, 72 h; type: cell-based, human; settings: PC-3, 72 h
Protocol: as §1, §2

[12] = system: Hep-2 (laryngeal carcinoma); assay: MTT cell growth inhibition, Hep-2 cells, 72 h; type: cell-based, human; settings: Hep-2, 72 h
Protocol: as §1, §2

Hep G2 cells = settings: in vitro, literature report; cited from earlier work
[13] = system: Becap37 (human breast cancer cell); assay: MTT cell growth inhibition, Becap37 cells, 72 h; type: cell-based; settings: Becap-37, 72 h
Protocol: as §1, §2

[14] = system: Jurkat (acute lymphoblastic leukemia, ALL); assay: MTT cell growth inhibition, Jurkat leukemia cells, 72 h; type: cell-based; settings: 72 h
Protocol: as §1, with “with” for “with a”, “to a” for “to the”
as §2, with “leukemia” for “human solid tumor”, “the RPMI-1640” for “DMEM High Glucose”, “serum.” for “serum. The plate is placed in a carbon dioxide cell incubator (5% CO2) at 37° C. and incubated for 24 hours.”, “adding on the second day” for “adding”, “uniformly, placing” for “uniformly,”, “plate” for “plate is placed”

A549 (human lung cancer) = assay: MTT cell growth inhibition, A549 cells, 72 h; type: cell-based; settings: A549, 72 h
Protocol: as §1, §2

[15] = system: CaES-17 (esophageal cancer cell); assay: MTT cell growth inhibition, CaES-17 cells, 72 h; type: cell-based, human; settings: CaEs-17, 72 h
Protocol: as §1, §2

[16] = system: U87 MG (malignant glioma cell); assay: MTT cell growth inhibition, U87 MG cells, 72 h; type: cell-based, human; settings: U87-MG, 72 h
Protocol: as §1, §2

[17] = background statement; cited from earlier work; remark: listed apart in the source
[18] = system: RPMI8226 (multiple myeloma); assay: MTT cell growth inhibition, RPMI8226 multiple myeloma cells, 72 h; type: cell-based, human; settings: RPMI 8226, 72 h
Protocol: as §1, with “with” for “with a”, “to a” for “to the”
as §2, with “leukemia” for “human solid tumor”, “the RPMI-1640” for “DMEM High Glucose”, “serum.” for “serum. The plate is placed in a carbon dioxide cell incubator (5% CO2) at 37° C. and incubated for 24 hours.”, “adding on the second day” for “adding”, “uniformly, placing” for “uniformly,”, “plate” for “plate is placed”

[19] = system: NB4 (acute promyelocytic leukemia, AML); assay: MTT cell growth inhibition, NB4 leukemia cells, 72 h; type: cell-based; settings: NB4, 72 h
Protocol: as §1, with “with” for “with a”, “to a” for “to the”
as §2, with “leukemia” for “human solid tumor”, “the RPMI-1640” for “DMEM High Glucose”, “serum.” for “serum. The plate is placed in a carbon dioxide cell incubator (5% CO2) at 37° C. and incubated for 24 hours.”, “adding on the second day” for “adding”, “uniformly, placing” for “uniformly,”, “plate” for “plate is placed”

[20] = system: RKO (human colon adenocarcinoma cell); assay: MTT cell growth inhibition, RKO cells, 72 h; type: cell-based; settings: RKO, 72 h
Protocol: as §1, §2

## Cc1coc2c1C(=O)C(=O)c1c-2ccc2c(C)cccc12 [TA, 1,6-dimethyl-phenanthreno [1,2-b]furan-10,11-diketone, reference compound]
MG63 (osteosarcoma)
  IC50: 0.96 µg/mL (≈ 3.47 µM)
  IC90: >16 µg/mL
[1]
  IC50: 3.5 µg/mL (≈ 12.7 µM)
  IC90: 13.06 µg/mL (≈ 47.3 µM)
[2]
  IC50: >16 µg/mL
  IC90: >16 µg/mL
[3]
  IC50: 0.88 µg/mL (≈ 3.19 µM)
  IC90: 4.17 µg/mL (≈ 15.1 µM)
[4]
  solubility in water: poor solubility in water
tumor-bearing nude mice
  effect on tumor growth in tumor-bearing nude mice: can inhibit the tumor growth in the mice
[5]
  effect on growth of SGC-7901 cells cultured in vitro: significant inhibitory effect
[6]
  IC50: 4 µg/mL (≈ 14.5 µM)
  IC90: >16 µg/mL
[7]
  IC50: 1.62 µg/mL (≈ 5.86 µM)
  IC90: 9.26 µg/mL (≈ 33.5 µM)
[8]
  IC50: 2.19 µg/mL (≈ 7.93 µM)
  IC90: 22.13 µg/mL (≈ 80.1 µM)
[9]
  IC50: 0.99 µg/mL (≈ 3.58 µM)
  IC90: 3.62 µg/mL (≈ 13.1 µM)
[10]
  IC50: 7.4 µg/mL (≈ 26.8 µM)
  IC90: >16 µg/mL
[11]
  IC50: 2.7 µg/mL (≈ 9.77 µM)
  IC90: >16 µg/mL
PC-3 (prostate cancer)
  IC50: 6.63 µg/mL (≈ 24 µM)
  IC90: 10.57 µg/mL (≈ 38.3 µM)
[12]
  IC50: 3.15 µg/mL (≈ 11.4 µM)
  IC90: >16 µg/mL
Hep G2 cells
  effect on proliferation of Hep G2 cells: can inhibit the proliferation of Hep G2 cells
[13]
  IC50: 3.03 µg/mL (≈ 11 µM)
  IC90: >16 µg/mL
[14]
  IC50: 1.74 µg/mL (≈ 6.3 µM)
  IC90: 8.42 µg/mL (≈ 30.5 µM)
A549 (human lung cancer)
  IC50: 4.03 µg/mL (≈ 14.6 µM)
  IC90: 17.29 µg/mL (≈ 62.6 µM)
[15]
  IC50: 3.18 µg/mL (≈ 11.5 µM)
  IC90: 16.00 µg/mL (≈ 57.9 µM)
[16]
  IC50: 6.36 µg/mL (≈ 23 µM)
  IC90: 14.63 µg/mL (≈ 53 µM)
[17]
  in vivo bioavailability: low in vivo bioavailability
[18]
  IC50: 0.96 µg/mL (≈ 3.47 µM)
  IC90: 10.86 µg/mL (≈ 39.3 µM)
[19]
  IC50: 0.98 µg/mL (≈ 3.55 µM)
  IC90: 2.5 µg/mL (≈ 9.05 µM)
[20]
  IC50: 1.83 µg/mL (≈ 6.62 µM)
  IC90: >16 µg/mL
